Consider 9 compounds from patent US8410095B2, “Thiazolopyrimidinone derivatives as PI3 kinase inhibitors” (GlaxoSmithKline LLC, priority 2009, dated 2013).

Read-outs that look alike come from different tables or passages of the source.

One assay addresses T1, PI3Kδ (Homo sapiens, UniProt O00329).
T1 construct: made in house
Nature of the assay: HTRF in vitro profiling assay for PI3K inhibition, delta isoform. As to conditions: in at least one experimental run. It is filed as biochemical. The text has this: (§1) HTRF In vitro Profiling Assays for PI3K Inhibition
(§2) The PI3-Kinase profiling assays were developed to measure the compound-dependent inhibition of the alpha, beta, delta, and gamma isoforms of PI3Kin an in vitro catalytic assay. This assay was developed and optimized from a kit produced by Upstate (Millipore catalog #33-017). Briefly, this procedure utilizes a pre-formed HTRF (Homogeneous Time-Resolved Fluorescence energy transfer) complex between four binding partners: 1) biotinylated PIP3, 2) GST tagged pleckstrin homology (PH) domain, 3) Europium labeled anti-GST monoclonal antibody, and 4) Streptavidin-Allophycocyanin (APC). The native PIP3 produced by PI 3-Kinase activity displaces biotin-PIP3 from the PH domain, resulting in the dissociation of the HTRF complex and a decrease in the fluorescence signal. The format of this assay is the same for all 4 isoforms of PI3K; the differences lie in the concentration of enzyme used to achieve the most robust signal. The alpha and delta assays are run at […] enzyme and the gamma assay is run at 1 nM enzyme. In addition, the alpha, beta and delta assays are run with 150 mM NaCl while the gamma assay is run in the absence of NaCl. The ATP concentration is 100 uM in the alpha, beta, and delta assays and 15 uM ATP in the gamma assay. All reactions are run at 10 uM PIP2
(§3) Compounds are serially diluted (3-fold in 100% DMSO) across a 384-well polypropylene mother plate from column I to column 12 and column 13 to column 24, to yield 11 concentrations for each test compound. Columns 6 and 18 contain only DMSO. Once titrations are made, 0.05 μL is transferred to a 384-well low-volume assay plate (Greiner 784076). This assay plate contains three pharmacological controls (known PI3K inhibitors) and 3 assay controls: (1) Enzyme without inhibitor; (2) Buffer minus enzyme, and (3) Buffer minus enzyme plus native PIP3. DMSO is stamped into all wells of columns 6 and 18. PIP3 is added at 40 μM in 1× Reaction buffer (1 μL of 200 μM PIP3) to alternating rows of column 18 (wells 18 B, D, F, H, J, L, N, P). The no-enzyme control reactions are run in wells 18 A, C, E, G, I, K, M, O (0.1 μL of 100% DMSO).
The PI3-Kinase profiling assay was optimized using the HTRF kit provided by Upstate (Millipore). The assay kit contains seven reagents: 1) 4× Reaction Buffer; 2) native PIP2 (substrate); 3) Stop A (EDTA); 4) Stop B (Biotin-PIP3); 5) Detection Mix A (Streptavidin-APC); 6) Detection Mix B (Eu-labeled Anti-GST plus GST-tagged PH-domain); 7) Detection Mix C (KF). In addition, the following items were obtained or purchased: PI3Kinase (prepared by GSK BR&AD), dithiothreitol (Sigma, D-5545), Adenosine-5′-triphosphate (ATP, Teknova cat. #A0220), native PIP3 (1,2-dioctanoyl-sn-glycero-3-[phosphoinositil-3,4,5-triphosphate]tetraammonium salt (Avanti polar lipids, 850186P), DMSO (Sigma, 472301).
PI3Kinase Reaction Buffer is prepared by diluting the stock 1:4 with de-ionized water. Freshly prepared DTT is added at a final concentration of 5 mM on the day of use. Enzyme addition and compound pre-incubation are initiated by the addition of 2.5 μL of PI3K (at twice its final concentration) in 1× reaction buffer to all wells using a Multidrop Combi. Plates are incubated at room temperature for 15 minutes. Reactions are initiated by addition of 2.5 μL of 2× substrate solution (PIP2 and ATP in 1× reaction buffer) using a Multidrop Combi. Plates are incubated at room temperature for one hour. Reactions are quenched by the addition of 2.5 μL of stop solution (Stop A and Stop B pre-mixed at a ratio of 5:1, respectively) to all wells using the Multidrop Combi. […]
(In general: In TR-FRET formats the signal depends on donor and acceptor labels being close together.)

Another assay deals with T2, PI3Kβ (Homo sapiens, UniProt P42338).
T2 construct: made in house
Nature of the assay: HTRF in vitro profiling assay for PI3K inhibition, beta isoform. The class given is biochemical. Particulars: in at least one experimental run; read-out: IC50 against PI3Kβ.
Source text: as §1, §2
as §3, with “The no-enzyme control reactions are run in wells 18 A, C, E, G, I, K, M, O (0.1 μL of 100% DMSO).” left out

Where [1] appears, read: read-out: pIC50 against PI3Kδ (converted).

T2 sequence (P42338 whole entry): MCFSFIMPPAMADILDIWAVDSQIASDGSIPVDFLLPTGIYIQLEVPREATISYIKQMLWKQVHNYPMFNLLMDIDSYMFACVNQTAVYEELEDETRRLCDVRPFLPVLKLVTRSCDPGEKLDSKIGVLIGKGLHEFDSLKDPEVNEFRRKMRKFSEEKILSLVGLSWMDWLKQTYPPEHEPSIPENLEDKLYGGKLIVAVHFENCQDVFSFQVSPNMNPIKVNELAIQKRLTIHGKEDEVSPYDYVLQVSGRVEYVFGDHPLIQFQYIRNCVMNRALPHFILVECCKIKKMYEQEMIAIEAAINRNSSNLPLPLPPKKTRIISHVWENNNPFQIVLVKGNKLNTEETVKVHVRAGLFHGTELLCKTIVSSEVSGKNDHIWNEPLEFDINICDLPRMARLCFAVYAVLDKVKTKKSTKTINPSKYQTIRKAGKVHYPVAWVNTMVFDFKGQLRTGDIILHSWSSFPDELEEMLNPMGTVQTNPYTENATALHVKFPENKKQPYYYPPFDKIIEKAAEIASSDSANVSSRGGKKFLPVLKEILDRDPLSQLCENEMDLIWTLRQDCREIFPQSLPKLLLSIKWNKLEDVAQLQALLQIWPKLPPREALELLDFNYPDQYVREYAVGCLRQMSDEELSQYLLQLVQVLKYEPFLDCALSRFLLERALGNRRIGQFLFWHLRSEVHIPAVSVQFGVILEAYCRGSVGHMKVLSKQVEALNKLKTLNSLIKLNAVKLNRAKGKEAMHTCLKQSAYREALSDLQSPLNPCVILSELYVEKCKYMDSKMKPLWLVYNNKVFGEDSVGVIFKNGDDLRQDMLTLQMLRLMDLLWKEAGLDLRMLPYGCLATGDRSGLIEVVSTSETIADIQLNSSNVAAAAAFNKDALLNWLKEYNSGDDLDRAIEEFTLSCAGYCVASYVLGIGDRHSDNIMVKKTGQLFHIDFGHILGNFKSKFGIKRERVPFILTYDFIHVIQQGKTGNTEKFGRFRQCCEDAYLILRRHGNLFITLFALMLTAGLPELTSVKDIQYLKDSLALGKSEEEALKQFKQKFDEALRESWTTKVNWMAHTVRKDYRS
T2 sequence (P27986 whole entry partner): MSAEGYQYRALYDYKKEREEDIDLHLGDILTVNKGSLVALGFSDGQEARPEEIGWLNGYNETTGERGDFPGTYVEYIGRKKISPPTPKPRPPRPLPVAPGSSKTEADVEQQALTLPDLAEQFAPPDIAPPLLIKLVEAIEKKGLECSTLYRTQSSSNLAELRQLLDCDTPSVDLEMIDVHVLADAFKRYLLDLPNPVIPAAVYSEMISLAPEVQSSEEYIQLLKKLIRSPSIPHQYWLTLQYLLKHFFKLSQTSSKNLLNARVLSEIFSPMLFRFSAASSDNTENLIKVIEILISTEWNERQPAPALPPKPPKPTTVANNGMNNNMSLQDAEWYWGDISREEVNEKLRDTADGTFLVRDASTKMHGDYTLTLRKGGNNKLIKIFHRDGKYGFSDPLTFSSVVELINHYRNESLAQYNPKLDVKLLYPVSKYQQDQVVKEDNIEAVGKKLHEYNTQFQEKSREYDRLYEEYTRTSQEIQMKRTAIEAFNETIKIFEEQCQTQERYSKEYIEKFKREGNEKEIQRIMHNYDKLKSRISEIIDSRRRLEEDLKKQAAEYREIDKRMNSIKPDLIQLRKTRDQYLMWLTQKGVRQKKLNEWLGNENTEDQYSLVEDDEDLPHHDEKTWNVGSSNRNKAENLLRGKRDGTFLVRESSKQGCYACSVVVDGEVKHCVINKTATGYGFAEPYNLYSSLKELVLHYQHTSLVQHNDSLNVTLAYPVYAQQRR
T1 sequence (O00329 whole entry): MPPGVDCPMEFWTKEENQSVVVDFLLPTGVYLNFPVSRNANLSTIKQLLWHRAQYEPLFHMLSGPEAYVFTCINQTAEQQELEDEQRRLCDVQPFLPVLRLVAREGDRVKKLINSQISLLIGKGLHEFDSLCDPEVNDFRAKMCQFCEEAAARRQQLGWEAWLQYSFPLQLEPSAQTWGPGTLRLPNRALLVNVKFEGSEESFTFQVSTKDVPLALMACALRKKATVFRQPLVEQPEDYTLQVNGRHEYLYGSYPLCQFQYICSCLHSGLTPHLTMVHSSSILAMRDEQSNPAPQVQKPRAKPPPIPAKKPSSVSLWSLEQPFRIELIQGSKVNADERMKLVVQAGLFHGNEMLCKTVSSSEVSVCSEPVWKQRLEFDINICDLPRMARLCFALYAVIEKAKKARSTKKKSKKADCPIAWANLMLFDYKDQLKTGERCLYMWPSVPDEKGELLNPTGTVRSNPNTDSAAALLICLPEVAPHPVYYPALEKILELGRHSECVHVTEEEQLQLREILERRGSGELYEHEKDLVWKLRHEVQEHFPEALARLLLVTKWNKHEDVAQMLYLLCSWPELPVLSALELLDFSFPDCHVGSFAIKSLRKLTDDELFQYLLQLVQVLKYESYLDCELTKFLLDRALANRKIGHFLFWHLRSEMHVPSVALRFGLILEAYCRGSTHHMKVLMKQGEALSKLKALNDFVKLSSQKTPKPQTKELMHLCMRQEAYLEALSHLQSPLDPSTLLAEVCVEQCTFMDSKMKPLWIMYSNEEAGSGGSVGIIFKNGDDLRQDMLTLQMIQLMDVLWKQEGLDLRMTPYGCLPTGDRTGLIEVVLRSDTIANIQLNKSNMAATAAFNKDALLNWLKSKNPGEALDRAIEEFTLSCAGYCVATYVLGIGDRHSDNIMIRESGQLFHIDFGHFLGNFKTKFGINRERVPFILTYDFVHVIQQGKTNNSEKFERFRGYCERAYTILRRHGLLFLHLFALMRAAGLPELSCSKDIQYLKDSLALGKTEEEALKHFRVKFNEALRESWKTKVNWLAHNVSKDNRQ
T1 sequence (P27986 2-724 partner limits assumed): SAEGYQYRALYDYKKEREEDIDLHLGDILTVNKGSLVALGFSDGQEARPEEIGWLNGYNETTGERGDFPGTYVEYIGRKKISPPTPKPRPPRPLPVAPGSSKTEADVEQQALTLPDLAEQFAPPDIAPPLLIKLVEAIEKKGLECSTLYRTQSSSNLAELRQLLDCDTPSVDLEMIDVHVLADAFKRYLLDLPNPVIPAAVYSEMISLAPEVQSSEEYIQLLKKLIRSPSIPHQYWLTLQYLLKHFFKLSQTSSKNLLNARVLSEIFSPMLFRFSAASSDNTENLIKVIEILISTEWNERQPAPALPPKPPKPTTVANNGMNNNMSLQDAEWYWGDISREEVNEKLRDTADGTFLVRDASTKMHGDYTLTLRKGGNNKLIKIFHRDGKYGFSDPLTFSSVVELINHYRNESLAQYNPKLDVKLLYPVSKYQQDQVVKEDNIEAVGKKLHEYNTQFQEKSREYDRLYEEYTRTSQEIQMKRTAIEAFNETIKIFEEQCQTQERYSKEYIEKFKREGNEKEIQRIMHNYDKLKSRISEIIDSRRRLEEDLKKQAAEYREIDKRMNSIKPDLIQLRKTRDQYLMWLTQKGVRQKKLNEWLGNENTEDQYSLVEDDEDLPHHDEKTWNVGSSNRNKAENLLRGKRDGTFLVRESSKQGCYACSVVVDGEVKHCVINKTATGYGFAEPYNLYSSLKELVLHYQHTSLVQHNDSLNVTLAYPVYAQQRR

For the compound `Cc1c(Cn2c(-c3ccccc3)nc(=O)c3sc(N4CCOCC4)nc32)cccc1C(F)(F)F` [Example 79, 4-{[2-methyl-3-(trifluoromethyl)phenyl]methyl}-2-(4-morpholinyl)-5-phenyl[1,3]thiazolo[4,5-d]pyrimidin-7(4H)-one], the IC50 at PI3Kδ (setting [1]) was 50.1 nM.

Consider `Cc1c(Cl)cccc1Cn1c(C2CCCO2)nc(=O)c2sc(N3CCOCC3)nc21` (stereo not drawn) [Example 83, 4-[(3-chloro-2-methylphenyl)methyl]-2-(4-morpholinyl)-5-(tetrahydro-2-furanyl)[1,3]thiazolo[4,5-d]pyrimidin-7(4H)-one], for which the IC50 on PI3Kδ (setting [1]) is 1.26 nM. As to `Cc1c(Cl)cccc1Cn1cnc(=O)c2sc(N3CCOCC3)nc21` [Example 3, 4-[(3-chloro-2-methylphenyl)methyl]-2-(4-morpholinyl)[1,3]thiazolo[4,5-d]pyrimidin-7(4H)-one], the IC50 on PI3Kβ worked out at 400 nM. For the compound `Cc1c(Cn2c(C)nc(=O)c3sc(N4CCOCC4)nc32)cccc1C(F)(F)F` [Example 59, 5-methyl-4-{[2-methyl-3-(trifluoromethyl)phenyl]methyl}-2-(4-morpholinyl)[1,3]thiazolo[4,5-d]pyrimidin-7(4H)-one], the IC50 at PI3Kβ was 0.5 nM. `N#Cc1cccc(Cn2cnc(=O)c3sc(N4CCOCC4)nc32)c1` [Example 20, 3-{[2-(4-morpholinyl)-7-oxo[1,3]thiazolo[4,5-d]pyrimidin-4(7H)-yl]methyl}benzonitrile]: at PI3Kδ (read-out: IC50 against PI3Kδ), the IC50 was found to be 8 nM. For the compound `CCc1nc(=O)c2sc(N3CCOCC3)nc2n1Cc1cccc(Cl)c1C` [Example 75, 4-[(3-chloro-2-methylphenyl)methyl]-5-ethyl-2-(4-morpholinyl)[1,3]thiazolo[4,5-d]pyrimidin-7(4H)-one], the IC50 on PI3Kδ (setting [1]) is 0.158 nM.

As to `Cc1c(Cl)cccc1Cn1c(CN)nc(=O)c2sc(N3CCOCC3)nc21` [Example 111, 5-(aminomethyl)-4-[(3-chloro-2-methylphenyl)methyl]-2-(4-morpholinyl)[1.3]thiazolo[4,5-d]pyrimidin-7(4H)-one], the IC50 at PI3Kδ (setting [1]) is 2.51 nM. On to `O=c1ncn(Cc2ccccc2C(F)(F)F)c2nc(N3CCOCC3)sc12` [Example 1, 2-(4-morpholinyl)-4-{[2(trifluoromethyl)phenyl]methyl}[1,3]thiazolo[4,5-d]pyrimidin-7(4H)-one], for which the IC50 at PI3Kβ amounted to 320 nM. For `Cc1c(Cl)cccc1Cn1c(CO)nc(=O)c2sc(N3CCOCC3)nc21` [Example 84, 4-[(3-chloro-2-methylphenyl)methyl]-5-(hydroxymethyl)-2-(4-morpholinyl)[1,3]thiazolo[4,5-d]pyrimidin-7(4H)-one], at PI3Kδ (setting [1]), the IC50 was 0.126 nM.
